One test relates to immunoglobulin light chain protein WIL-FL T46L. The test can be described thus: Differential scanning fluorimetry (thermal shift) assay. In kind it is binding. As to conditions: Table A; temperature shift [Tm]compound-[Tm]vehicle; recombinant WIL-FL T46L.
Take `Cc1cc(N2CC[C@](c3ccccc3)(C(F)F)C2)cn2nc(C(=O)NC3CCN(c4ccnc(C(=O)O)c4)CC3)nc12` [Compound 330]: the DSF entry is reported as “**** (>1.5-2.5° C.=****)”.
On to `Cc1nc(C2C3(CN)COC2(c2nc4c(C)cc(N5CC[C@](C)(c6ccccc6)C5)cn4n2)C3)n[nH]1` (some centres unmarked) [Compound 46], for which the DSF entry is given as “***** (>2.5° C.=*****)”.
In the case of `Cc1cc(N2CC[C@](C)(c3ccccc3)C2)cn2nc(C(=O)N3CC4CN(c5cccc(C(=O)O)n5)CC4C3)nc12` (some centres unmarked) [Compound 213], the DSF entry is “***** (>2.5° C.=*****)”.
With `Cc1nnc(CNC23COC(c4nc5c(C)cc(N6CC[C@](C)(c7ccccc7)C6)cn5n4)(C2)C3)[nH]1` [Compound 56], the DSF entry is “***** (>2.5° C.=*****)”.
On to `Cc1cc(OC[C@H](C)c2cccc(F)c2)cn2nc(C(=O)NC3CC4(C3)CC(N3CC5C(C3)C5C(=O)O)C4)nc12` (some centres unmarked) [Compound 310], for which the DSF entry is reported as “***** (>2.5° C.=*****)”.
Regarding `Cc1cc(N2CC[C@](C)(c3ccccc3)C2)cn2nc(C(=O)NC3CCC4(CCN(c5cccc(C(=O)O)n5)C4)C3)nc12` (some centres unmarked) [Compound 245], the DSF result is given as “***** (>2.5° C.=*****)”.
As to `Cc1cc(N2CC3(CC(NC(=O)c4nc5c(C)cc(N6CC[C@](C)(c7ccccc7)C6)cn5n4)C3)C2)cc(C(=O)O)n1` [Compound 272], the DSF result is recorded as “***** (>2.5° C.=*****)”.
`CNC(=O)c1nc2c(C#N)cc(N3CC[C@](C)(c4ccccc4)C3)cn2n1` [Compound 338]: the DSF entry is listed as “* (0-0.5° C.=*)”.
Turning to `Cc1cc(N2CC[C@](C)(c3ccccc3)C2)cn2nc(C(=O)N3CCC4(CC3)COCC4N3CC4C(C3)C4C(=O)O)nc12` (some centres unmarked) [Compound 353], the DSF entry was “***** (>2.5° C.=*****)”.
`Cc1cc(N2CC[C@](C)(c3ccccc3)C2)cn2nc(C34CC(C(N)=O)(CO3)C4)nc12` [Compound 55]: the DSF result is “***** (>2.5° C.=*****)”.
Same read-out and setting: for `Cc1cc(OC[C@H](C)c2ccccc2)cn2nc(C(=O)NC3CCC(C)(O)C3)nc12` (some centres unmarked) [Compound 315] the value was “**** (>1.5-2.5° C.=****)”; for `Cc1cc(N2CCC(C)(c3nnn(C)n3)C2)cn2nc(C(=O)N3C[C@@H]4CN(c5cccc(C(=O)O)n5)C[C@@H]4C3)nc12` (some centres unmarked) [Compound 35, 6-[5-[8-methyl-6-[3-methyl-3-(2-methyltetrazol-5-yl)pyrrolidin-1-yl]-[1,2,4]triazolo[1,5-a]pyridine-2-carbonyl]-1,3,3a, 4,6,6a-hexahydropyrrolo[3,4-c]pyrrol-2-yl]pyridine-2-carboxylic acid], “*** (>1-1.5° C.=***)”; for `Cc1nc(C2C3(c4nc5c(C)cc(N6CC[C@](C)(c7ccccc7)C6)cn5n4)CC2(C(C)(C)O)CO3)n[nH]1` (mixture of isomers) [Compound 3, 2-[1-[8-methyl-6-[rac-(3R)-3-methyl-3-phenyl-pyrrolidin-1-yl]-[1,2,4]triazolo[1,5-a]pyridin-2-yl]-5-(5-methyl-1H-1,2,4-triazol-3-yl)-2-oxabicyclo[2.1.1]hexan-4-yl]propan-2-ol], “***** (>2.5° C.=*****)”.
Regarding `CNC(=O)c1nc2c(C)cc(N3CCC(C)(c4ccccc4F)C3)cn2n1` (centres unmarked) [Compound 425], the DSF result is recorded as “***** (>2.5° C.=*****)”.
Regarding `Cc1nnc(C2(C)CCN(c3cc(C)c4nc(C(=O)N5C[C@@H]6CN(c7cccc(C(=O)O)n7)C[C@@H]6C5)nn4c3)C2)s1` (some centres unmarked) [Compound 301], the DSF entry is “* (0-0.5° C.=*)”.
Turning to `Cc1cc(N2CC[C@](C)(c3ccccc3)C2)cn2nc(C(=O)N3CCCC(C)(C(=O)O)C3)nc12` (some centres unmarked) [Compound 178], the DSF entry is given as “***** (>2.5° C.=*****)”.
On the same count and under the same terms, in the case of `Cc1cc(OC[C@H](C)c2ccccc2)cn2nc(C(=O)N3CCC4(CCN(c5cccc(C(=O)O)n5)C4)C3)nc12` (some centres unmarked) [Compound 311] it was “***** (>2.5° C.=*****)”; in that of `Cc1cc(N2CC[C@](C)(c3ccccc3)C2)cn2nc(C(=O)NC3CN(c4cccc(C(=O)O)n4)C3)nc12` [Compound 217], “***** (>2.5° C.=*****)”.
With `Cc1cc(N2CC[C@](C)(c3ccccc3)C2)cn2nc(C(=O)N[C@@H]3CCNC3)nc12` [Compound 102], the DSF entry is “***** (>2.5° C.=*****)”.
In the case of `Cc1cc(N2CC[C@](C)(c3ccccc3)C2)cn2nc(C(=O)N3CCOC4(C3)CN(c3cccc(C(=O)O)n3)C4)nc12` [Compound 286], the DSF entry is given as “***** (>2.5° C.=*****)”.
Take `Cc1cc(N2CC[C@](C)(c3ccccc3)C2)cn2nc(C34CC(CO3)C4N3CC4(CC4)NC3=O)nc12` (some centres unmarked) [Compound 78]: the DSF entry was “***** (>2.5° C.=*****)”.
With `Cc1nc(C2C3(N)COC2(c2nc4c(C)cc(N5CC[C@](C)(c6ccccc6)C5)cn4n2)C3)n[nH]1` (some centres unmarked) [Compound 48], the DSF entry is on record as “***** (>2.5° C.=*****)”.
For `Cc1cc(N2CC[C@](C)(c3ccccc3)C2)cn2nc(C(=O)NC34COC(C(C)(C)O)(C3)C4)nc12` [Compound 123], the DSF entry is “***** (>2.5° C.=*****)”.
As for `Cc1cc(N2CC[C@](C)(c3ccccc3)C2)cn2nc(C(=O)N3CCC4(C3)CN(c3cccc(C(=O)O)n3)C4)nc12` [Compound 241], the DSF entry is listed as “***** (>2.5° C.=*****)”.
The same measure, in the same setting: in the case of `Cc1cc(N2CC[C@](C)(c3ccccc3)C2)cn2nc(C(=O)NC3CCC(c4cccc(C(=O)O)n4)CC3)nc12` (some centres unmarked) [Compound 229] it was “***** (>2.5° C.=*****)”.
Take `Cc1cc(N2CC[C@](C)(c3ccccc3)C2)cn2nc(C(=O)NC3CCN(c4cc(C(=O)O)ccn4)CC3)nc12` [Compound 227]: the DSF result is listed as “***** (>2.5° C.=*****)”.
Turning to `Cc1cc(N2CCC(C)(c3ccc(F)cn3)C2)cn2nc(C(=O)N3CC[C@@]4(CCN(c5cccc(C(=O)O)n5)C4)C3)nc12` (some centres unmarked) [Compound 423], the DSF entry was “*** (>1-1.5° C.=***)”.
Still for that read-out and setting: in the case of `Cc1cc(N2CC[C@](C)(c3ccccc3)C2)cn2nc(C(=O)NC3CCS(=O)(=O)C3)nc12` (some centres unmarked) [Compound 109] it was “***** (>2.5° C.=*****)”; in that of `Cc1cc(N2CC[C@](C)(c3ccccc3)C2)cn2nc(C(=O)NC3CC(O)(C(F)(F)F)C3)nc12` (some centres unmarked) [Compound 205], “***** (>2.5° C.=*****)”.
Same read-out and setting: in the case of `Cc1cc(N2CC[C@](C)(c3ccccc3)C2)cn2nc(C(=O)NCC3(O)COC3)nc12` [Compound 106] it was “***** (>2.5° C.=*****)”.

The same test, now with this note: Table B; temperature shift [Tm]compound-[Tm]vehicle; recombinant WIL-FL T46L.
`Cc1cc(N2CC[C@](C)(c3ccccc3)C2)cn2nc(C(=O)NCC3CCN(c4cccc(C(=O)O)n4)CC3)nc12` [Compound 647]: the DSF result was “***** (>2.5° C.=*****)”.
Take `Cc1cc(N2CC[C@](C)(c3ccccc3)C2)cn2nc(C(=O)N3CCC4(CCC(O)(c5cccc(C(=O)O)n5)C4)C3)nc12` (stereo partly drawn) [Compound 670, 6-[8-hydroxy-2-[8-methyl-6-[(3R)-3-methyl-3-phenyl-pyrrolidin-1-yl]-[1,2,4]triazolo[1,5-a]pyridine-2-carbonyl]-2-azaspiro[4.4]nonan-8-yl]pyridine-2-carboxylic acid]: the DSF result is “***** (>2.5° C.=*****)”.
On to `Cc1cc(N2CC[C@](C)(c3ccccc3)C2)cn2nc(C34CC(CO3)C4c3nc(NS(=O)(=O)C4COC(C(=O)O)C4)n[nH]3)nc12` (some centres unmarked) [Compound 568], for which the DSF entry is given as “***** (>2.5° C.=*****)”.
`Cc1cc(N2CC[C@](C)(c3ccccc3)C2)cn2nc(C34CC(CNc5cccc(C(=O)O)n5)(CO3)C4)nc12` [Compound 461]: the DSF entry is “***** (>2.5° C.=*****)”.
In the case of `Cc1cc(N2CC[C@](C)(c3ccccc3)C2)cn2nc(C(=O)N3CCC4(C3)CN(c3cccc(C(=O)O)n3)C(=O)O4)nc12` (some centres unmarked) [Compound 687], the DSF result is “***** (>2.5° C.=*****)”.
On to `Cc1cc(N2CC[C@](C)(c3ccccc3)C2)cn2nc(C34CC(CO3)C4c3nc(NS(=O)(=O)C4CC(C)(C(=O)O)C4)n[nH]3)nc12` (some centres unmarked) [Compound 565], for which the DSF entry is reported as “***** (>2.5° C.=*****)”.
Consider `Cc1cc(N2CC[C@](C)(c3ccccc3)C2)cn2nc(C(=O)N3CC4CCN(c5cccc(C(=O)O)n5)C4C3)nc12` (some centres unmarked) [Compound 645], for which the DSF result is recorded as “***** (>2.5° C.=*****)”.
`Cc1cc(N2CC[C@](C)(c3ccccc3)C2)cn2nc(C(=O)NC3CC4(C3)CN(C(=O)CC(C)(C)C(=O)O)C4)nc12` [Compound 601]: the DSF entry is listed as “***** (>2.5° C.=*****)”.
Consider `CCS(=O)(=O)NCC12COC(c3nc4c(C)cc(N5CC[C@](C)(c6ccccc6)C5)cn4n3)(C1)C2c1n[nH]c(C)n1` (some centres unmarked) [Compound 587], for which the DSF entry is “***** (>2.5° C.=*****)”.
Take `Cc1cc(N2CC[C@](C)(c3ccccc3)C2)cn2nc(C(=O)NC3CC4(CCN(c5cccc(C(=O)O)n5)CC4)C3)nc12` [Compound 642, 6-[2-[[8-methyl-6-[(3R)-3-methyl-3-phenyl-pyrrolidin-1-yl]-[1,2,4]triazolo[1,5-a]pyridine-2-carbonyl]amino]-7-azaspiro[3.5]nonan-7-yl]pyridine-2-carboxylic acid]: the DSF result is on record as “***** (>2.5° C.=*****)”.
With `Cc1cc(N2CC[C@](C)(c3ccccc3)C2)cn2nc(C(=O)N3CCC4(CCCC(C(=O)O)C4)C3)nc12` (some centres unmarked) [Compound 606], the DSF result is “***** (>2.5° C.=*****)”.
As to `Cc1cc(N2CC[C@](C)(c3ccccc3)C2)cn2nc(C(=O)N3CC[C@@]4(CCN(C(=O)c5cccc(C(=O)O)n5)C4)C3)nc12` [Compound 715], the DSF result was “***** (>2.5° C.=*****)”.
The same measure, in the same setting: for `Cc1cc(N2CC[C@](C)(c3ccccc3)C2)cn2nc(C34CC(CO3)C4C(=O)Nc3cccc(C(=O)O)n3)nc12` (some centres unmarked) [Compound 478] the value was “***** (>2.5° C.=*****)”.
With `Cc1cc(N2CC[C@](C)(c3cccc(Cl)c3)C2)cn2nc(C(=O)N3CC[C@@]4(CCN(c5cccc(C(=O)O)n5)C4)C3)nc12` [Compound 747], the DSF result is reported as “***** (>2.5° C.=*****)”.
On to `Cc1cc(N2CC[C@](C)(c3ccccc3)C2)cn2nc(C34CC(NC(=O)Nc5cccc(C(=O)O)n5)(CO3)C4)nc12` [Compound 454], for which the DSF entry is reported as “***** (>2.5° C.=*****)”.
On to `CCS(=O)(=O)Nc1n[nH]c(C2C3COC2(c2nc4c(C)cc(N5CC[C@@](C)(n6ccc(C(F)(F)F)n6)C5)cn4n2)C3)n1` (some centres unmarked) [Compound 563], for which the DSF result was “**** (>1.5-2.5° C.=****)”.
In the case of `Cc1cc(N2CC[C@](C)(c3ccccc3)C2)cn2nc(C34CC(C#N)(CO3)C4)nc12` [Compound 464, (R)-1-(8-methyl-6-(3-methyl-3-phenylpyrrolidin-1-yl)-[1,2,4]triazolo[1,5-a]pyridin-2-yl)-2-oxabicyclo[2.1.1]hexane-4-carbonitrile], the DSF result is listed as “***** (>2.5° C.=*****)”.

For the origin of these results see patent US20260285857A1, “BICYCLIC AND HETEROCYCLIC AMIDE COMPOUNDS” (priority 2024, published 2026).
